# “And” between values parts separate entries of the source, which are not always exact repeats. Equal entries are not always repeated.
# Columns and labels:
# Rattus norvegicus [1] = species: Rattus norvegicus; test: Evaluation of competition between CDH and compound using [3H]NANA as ligand in sialyltransferase assay at a concentration of 0.90 mM
# Rattus norvegicus [2] = species: Rattus norvegicus; test: Evaluation of competition between CDH and compound using [3H]NANA as ligand in sialyltransferase assay at a concentration of 0.18 mM
# [3] = Km from Lineweaver-Burke plot; assay type: ADME
# Rattus norvegicus [4] = species: Rattus norvegicus; test: Evaluation of inhibition of CDH sialylation by the compound at a concentration of 0 mM; assay type: functional
# Rattus norvegicus [5] = species: Rattus norvegicus; test: Evaluation of inhibition of CDH sialylation by the compound at a concentration of 0.9 mM; assay type: functional
compound,measurement,setting,value
O=C(CCCC[C@@H]1SC[C@@H]2NC(=O)N[C@@H]21)NCCCC[C@H](NC(=O)c1ccc(C2(C(F)(F)F)N=N2)cc1)C(=O)NCCO[C@@H]1O[C@@H](CO)[C@@H](O[C@@H]2O[C@@H](CO)[C@H](O)[C@H](O)[C@@H]2O)[C@H](O)[C@@H]1O,Binding,Rattus norvegicus [1],8610 dpm
same,Binding,Rattus norvegicus [2],3850 dpm and 9480 dpm
same,Km,[3],180 µM
same,Inhibition,Rattus norvegicus [4],0%
same,Inhibition,Rattus norvegicus [5],64%

# From ChEMBL document CHEMBL1128089, “A carbene-generating biotinylated lactosylceramide analog as novel photoreactive substrate for GM3 synthase” (Bioorg Med Chem Lett, 1995)
